Experimental data from PubChem BioAssay AID248 (DTP/NCI, 2004).
Inconclusive results and toxic doses are left out. Cut-off read from the data, not from the text of the source: active = T/C of 150% or more; inactive = T/C below 125%.

Tested on: L1210 leukemia ip in BDF1 mice, survival T/C
Assay: NCI In Vivo Anticancer Drug Screen. Data for tumor model L1210 Leukemia (intraperitoneal) in B6D2F1 (BDF1) mice
Settings: endpoint: mean survival time, higher = longer survival
Procedure, shortened: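 Transplantable tumor model; survival measured in treated vs vehicle control mice. Value = treated/control.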

[1] = dose: 100.0 mg/kg/injection, schedule: Q04DX002 (ip), vehicle: Klucel (hydroxypropylcellulose) (HPC)
[2] = dose: 200.0 mg/kg/injection, schedule: Q04DX002 (ip), vehicle: Klucel (hydroxypropylcellulose) (HPC)
[3] = dose: 400.0 mg/kg/injection, schedule: Q04DX002 (ip), vehicle: Klucel (hydroxypropylcellulose) (HPC)
[4] = dose: 100.0 mg/kg/injection, schedule: Q01DX001 (ip), vehicle: carboxymethylcellulose (CMC)
[5] = dose: 200.0 mg/kg/injection, schedule: Q01DX001 (ip), vehicle: carboxymethylcellulose (CMC)
[6] = dose: 100.0 mg/kg/injection, schedule: Q04DX003 (ip), vehicle: saline with Tween-80
[7] = dose: 200.0 mg/kg/injection, schedule: Q04DX003 (ip), vehicle: saline with Tween-80
[8] = dose: 100.0 mg/kg/injection, schedule: Q01DX009 (ip), vehicle: Klucel (hydroxypropylcellulose) (HPC)
[9] = dose: 100.0 mg/kg/injection, schedule: Q04DX003 (ip), vehicle: Klucel (hydroxypropylcellulose) (HPC)
[10] = dose: 200.0 mg/kg/injection, schedule: Q01DX009 (ip), vehicle: Klucel (hydroxypropylcellulose) (HPC)
[11] = dose: 200.0 mg/kg/injection, schedule: Q04DX003 (ip), vehicle: Klucel (hydroxypropylcellulose) (HPC)
[12] = dose: 400.0 mg/kg/injection, schedule: Q01DX009 (ip), vehicle: Klucel (hydroxypropylcellulose) (HPC)
[13] = dose: 400.0 mg/kg/injection, schedule: Q04DX003 (ip), vehicle: Klucel (hydroxypropylcellulose) (HPC)
[14] = dose: 100.0 mg/kg/injection, schedule: Q01DX001 (ip), vehicle: Klucel (hydroxypropylcellulose) (HPC)
[15] = dose: 200.0 mg/kg/injection, schedule: Q01DX001 (ip), vehicle: Klucel (hydroxypropylcellulose) (HPC)
[16] = dose: 400.0 mg/kg/injection, schedule: Q01DX001 (ip), vehicle: Klucel (hydroxypropylcellulose) (HPC)
[17] = dose: 400.0 mg/kg/injection, schedule: Q01DX001 (ip), vehicle: carboxymethylcellulose (CMC)
[18] = dose: 100.0 mg/kg/injection, schedule: Q01DX001 (ip), vehicle: saline

Measured: T/C

COc1ccc(OC)c(NCCCN2C(=O)c3ccccc3C2=O)c1
inactive: [1] 87 % of control | [2] 102 % of control | [3] 91 % of control

CCOC(=O)C1CC(=O)c2cc(OC)c(OC)cc2C1c1ccc(OC)c(OC)c1 (centres undefined)
inactive: [4] 98 % of control | [5] 89 % of control

CCOc1nc(N)nc(-c2ccc(OC)cc2)c1Br
inactive: dose: 100.0 mg/kg/injection, schedule: Q04DX002 (ip), vehicle: saline with Tween-80 94 % of control | dose: 200.0 mg/kg/injection, schedule: Q04DX002 (ip), vehicle: saline with Tween-80 102 % of control | dose: 400.0 mg/kg/injection, schedule: Q04DX002 (ip), vehicle: saline with Tween-80 97 % of control

O=C1c2cc3c(cc2CCC1N1CCOCC1)CCCC3 (centres undefined)
inactive: [6] 111 % of control | [7] 114 % of control

CSc1ccccc1C=O
inactive: [8] 114 % of control | [9] 94 % of control | [10] 105 % of control | [11] 95 % of control | [12] 106 % of control | [13] 95 % of control

COc1cc(N)c2ncsc2c1
inactive: dose: 100.0 mg/kg/injection, schedule: Q01DX009 (ip), vehicle: saline 97 % of control | [1] 94 % of control | dose: 200.0 mg/kg/injection, schedule: Q01DX009 (ip), vehicle: saline 102 % of control | [2] 88 % of control | [3] 91 % of control

c1ccc2c(c1)N=C1CCCC3CCCC123 (centres undefined)
inactive: dose: 100.0 mg/kg/injection, schedule: Q## X003 (ip), vehicle: saline 98 % of control | dose: 200.0 mg/kg/injection, schedule: Q## X003 (ip), vehicle: saline 104 % of control | dose: 400.0 mg/kg/injection, schedule: Q## X003 (ip), vehicle: saline 96 % of control

CCN(CC)CCNC(=O)c1ccc(N=Cc2cc(Cl)cc(Cl)c2O)cc1
inactive: [8] 100 % of control | [10] 96 % of control

Oc1ccc2ccccc2c1C=Nc1cccc(Cl)c1
inactive: dose: 50.0 mg/kg/injection, schedule: Q04DX003 (ip), vehicle: Klucel (hydroxypropylcellulose) (HPC) 103 % of control | [14] 113 % of control | [9] 101 % of control | [15] 107 % of control | [11] 98 % of control | [16] 101 % of control

Cc1ccc(S(=O)(=O)O/N=C/C23c4ccccc4C4C(c5ccccc52)C43)cc1 (centres undefined)
inactive: dose: 25.0 mg/kg/injection, schedule: Q04DX002 (ip), vehicle: saline with Tween-80 100 % of control | dose: 150.0 mg/kg/injection, schedule: Q04DX002 (ip), vehicle: saline with Tween-80 93 % of control | dose: 300.0 mg/kg/injection, schedule: Q04DX002 (ip), vehicle: saline with Tween-80 93 % of control

CCC(=O)CC(C)CC (centres undefined)
inactive: dose: 50.0 mg/kg/injection, schedule: Q01DX001 (ip), vehicle: carboxymethylcellulose (CMC) 94 % of control | [4] 102 % of control | [5] 91 % of control | [17] 102 % of control

CCOC(=O)CNC(=O)NCc1ccc2c(c1)OCO2
inactive: dose: 100.0 mg/kg/injection, schedule: Q01DX009 (ip), vehicle: saline with Tween-80 98 % of control | dose: 200.0 mg/kg/injection, schedule: Q01DX009 (ip), vehicle: saline with Tween-80 90 % of control

O=C(O)c1c(Br)c(Br)c(Br)c(Br)c1C(=O)Nc1cccc2c(O)cccc12
inactive: [8] 110 % of control | [10] 107 % of control | [12] 96 % of control

O=C(COc1cccc(Cl)c1)NCc1ccccc1NC(=O)c1cccc(S(=O)(=O)F)c1
inactive: [4] 90 % of control | [5] 95 % of control | [17] 95 % of control

Cc1ccc(N=Nc2cc(C)c(N)cc2N)c(S(=O)(=O)O)c1
inactive: dose: 100.0 mg/kg/injection, schedule: Q04DX003 (ip), vehicle: other 96 % of control | dose: 200.0 mg/kg/injection, schedule: Q04DX003 (ip), vehicle: other 105 % of control | dose: 400.0 mg/kg/injection, schedule: Q04DX003 (ip), vehicle: other 103 % of control

CN(C)CCCn1c(=O)c2ccccc2c2ccccc21
inactive: dose: 50.0 mg/kg/injection, schedule: Q01DX001 (ip), vehicle: saline 101 % of control | dose: 50.0 mg/kg/injection, schedule: Q01DX015 (ip), vehicle: saline 98 % of control | [18] 103 % of control | dose: 100.0 mg/kg/injection, schedule: Q01DX015 (ip), vehicle: saline 108 % of control

CCCCCCCCC1OC1CCCCCCCC(=O)N1CCN(C)CC1 (centres undefined)
inactive: dose: 75.0 mg/kg/injection, schedule: Q01DX001 (ip), vehicle: carboxymethylcellulose (CMC) 92 % of control | dose: 150.0 mg/kg/injection, schedule: Q01DX001 (ip), vehicle: carboxymethylcellulose (CMC) 97 % of control | dose: 300.0 mg/kg/injection, schedule: Q01DX001 (ip), vehicle: carboxymethylcellulose (CMC) 91 % of control

CCOc1nc2ccccc2c2cc3ccccc3cc12
inactive: [18] 103 % of control | dose: 200.0 mg/kg/injection, schedule: Q01DX001 (ip), vehicle: saline 109 % of control | dose: 400.0 mg/kg/injection, schedule: Q01DX001 (ip), vehicle: saline 111 % of control

Cc1[nH]c(=O)[nH]c(=O)c1CN1CCCCC1
inactive: [6] 100 % of control | [7] 106 % of control | dose: 400.0 mg/kg/injection, schedule: Q04DX003 (ip), vehicle: saline with Tween-80 93 % of control

O=[N+]([O-])c1ccc(/C=C/c2ccccc2Br)cc1
inactive: [8] 106 % of control | [9] 100 % of control | [10] 97 % of control | [11] 98 % of control | [12] 97 % of control | [13] 98 % of control

CNc1cc(Cl)c(C#N)c(Cl)c1
inactive: [14] 105 % of control | [9] 94 % of control | [15] 105 % of control | [11] 100 % of control | [16] 103 % of control | [13] 99 % of control

COc1ccc(CC2COC(O)C2Cc2ccc(OC3OC(CO)C(O)C(O)C3O)c(OC)c2)cc1OC (centres undefined)
inactive: dose: 100.0 mg/kg/injection, schedule: Q04DX002 (ip), vehicle: saline 102 % of control | dose: 200.0 mg/kg/injection, schedule: Q04DX002 (ip), vehicle: saline 112 % of control | dose: 400.0 mg/kg/injection, schedule: Q04DX002 (ip), vehicle: saline 87 % of control

c1ccc2c(C3OCC4(CCCCC4)CO3)cccc2c1
inactive: [8] 97 % of control | [9] 101 % of control | [10] 97 % of control | [11] 105 % of control | [12] 92 % of control | [13] 111 % of control

CCOC(=O)CNc1cccc(F)c1
inactive: [1] 101 % of control | [2] 108 % of control | [3] 105 % of control

CCCCCCCCCCCCCCCCCCSCCOCCSCCCCCCCCCCCCCCCCCC
inactive: [14] 87 % of control | [16] 88 % of control
